Experimental data: patent publication US20250177290A1, “DRUG-ELUTING SURGICAL ARTICLES AND METHODS OF USE THEREOF” (BIOSAPIEN INC., priority 2022, published 2025)

Test system: CT26 colorectal carcinoma murine model
Conditions: mouse, in vivo
Method: Efficacy was tested in murine model (BSPN02). CT26 colorectal cell lines in a murine model were chosen to conduct toxicity and safety studies in-vivo. The safety profile of Biomaterial-5-FU was compared with other control groups, and five aspects were evaluated as follows: (i) change in the body weight over time, (ii) organ weight and the ratio of organ to body weight, (iii) Hematoxylin-Eosin (H & E) staining for histological changes, (iv) a hepatic function panel, and (v) blood chemistry to assess impact on bone marrow. For H & E staining, five major organs (liver, heart, spleen, lungs, and kidneys) were collected from the mice at each time point. […] This toxic effect was not observed in mice treated with Biomaterial-5-FU. […] This toxic effect was not observed in mice treated with Biomaterial-5-FU.

## O=c1[nH]cc(F)c(=O)[nH]1 [IV 5-FU, 5-fluoro-1H-pyrimidine-2,4-dione]
  toxic effect: absolute numbers of white blood cells: reduction in the absolute numbers of white blood cells
  toxic effect: number of monocytes and other leukocytes (bone marrow suppression): reduction in the number of monocytes and other leukocytes
